Experimental data as given in patent US20140243332A1, “METHODS OF TREATING CANCERS CHARACTERIZED BY ABERRENT ROS1 ACTIVITY” (Oregon Health & Science University, priority 2013, published 2014).
Several values for one entry are separate records, joined by “and”; a condition that tells them apart may be missing. Equal values may be shown once. Read-outs that look alike come from different tables or passages of the source.

Key:
Ba/F3 SLC-ROS cells [1] = molecular target: T1, Ba/F3 SLC-ROS cells (Homo sapiens, UniProt P08922); assay: Cell viability (MTS) assay, Ba/F3 SLC-ROS; type: cell-based; conditions: 72 hours, read-out: IC50 (the source's name)
T1 construct: SLC-ROS-S (SLC-ROS) was cloned from cDNA made from HCC78 cells; fused on or other part: GFP is co-expressed from an IRES in pMIG and is not fused; O95436 (Sodium-dependent phosphate transport protein 2B)
Description: (§1) The parental Ba/F3 cell line was cultured in RPMI 1640 medium with 10% FBS, L-glutamine, penicillin/streptomycin and 15% WEHI-conditioned media. Ba/F3 cell lines were maintained at densities of 0.5×10^6 to 1.5×10^6 per ml of media. FIG-ROS and SLC-ROS Ba/F3 lines were created by infecting the parental Ba/F3 with retrovirus expressing either human FIG-ROS-S (indicated FIG-ROS herein) or SLC-ROS-S (indicated SLC-ROS herein). Stable transfectant lines were sorted for GFP expression on a FACS Aria® flow cytometer. Cells were counted daily using Guava ViaCount® reagent and Guava Personal Cell Analysis® flow cytometer. […] Early passage NIH3T3 cells were infected with retrovirus expressing either FIG-ROS or SLC-ROS and sorted for GFP expression as described above for Ba/F3 cells. HCC78 cells were cultured in RPMI 1640 medium with 10% FBS, L-glutamine, and penicillin/streptomycin. This media is referred to as RPMI-10% FBS herein.
(§2) […]. The Ba/F3 parental line was also tested. (O'Dwyer M E and Druker B J, Lancet Oncology 1, 207-211 (2000); Walters D K et al, Cancer Cell 10, 65-75 (2006); and Heukamp L C et al, Science Translational Medicine 4, 141ra191 (2012); […].

Ba/F3 FIG-ROS cells [2] = molecular target: T2, Ba/F3 FIG-ROS cells (Homo sapiens, UniProt P08922); assay: Cell viability (MTS) assay, Ba/F3 FIG-ROS; type: cell-based; conditions: read-out: IC50 (50% growth inhibitory concentration); Ba/F3 FIG-ROS cells, 72 hours, MTS
T2 construct: fused on or other part: GFP is co-expressed from an IRES in pMIG and is not fused; Q9HD26 (Golgi-associated PDZ and coiled-coil motif-containing protein)
Source text: as §1, with “Ba/F3” for “The parental Ba/F3 cell line was cultured in RPMI 1640 medium with 10% FBS, L-glutamine, penicillin/streptomycin and 15% WEHI-conditioned media. Ba/F3”, “HCC78 cells were cultured in RPMI 1640 medium with 10% FBS, L-glutamine, and penicillin/streptomycin.” left out
The FIG-ROS-S (FIG-ROS) fusion protein has been reported in non-small cell lung cancers (NSCLC), glioblastomas, and cholangiocarcinomas.

Ba/F3 parental cells = assay: Cell viability (MTS) assay, Ba/F3 parental; type: cell-based
Description: as §1, §2

SLC-ROS = SLC-ROS (Homo sapiens, UniProt P08922); assay: Immunoblot of Ba/F3 SLC-ROS lysates; type: cell-based; parameters: SLC34A2 N-terminal portion, fusion partner; expressed in transfected cells; host or cells: Ba/F3 (A15), retroviral pMIG; the other entry of the earlier key: SLC34A2 (O95436, Sodium-dependent phosphate transport protein 2B); conditions: Ba/F3 SLC-ROS cells, increasing amounts, immunoblot FIG. 1C
Description: (§3) FIG. 1C is an image of an immunoblot of lysates of Ba/F3 FIG-ROS and Ba/F3 SLC-ROS and the indicated downstream effectors after treatment with the indicated compounds. Images shown are representative of three independent experiments.
(§4) Ba/F3 FIG-ROS, Ba/F3 SLC-ROS, HCC78 and mCC cell lines were treated with the indicated concentration of inhibitors for 1-2 hours. […] The protein content of the cell lysates was determined and lysates were either used for immunoprecipitation where indicated or extracted with SDS Sample buffer for 15 minutes at 80° C. Proteins were transferred to Immobilon-FL membranes and immunoblotted with antibodies specific for phospho-ROS1 (Cell Signaling Technology (CST) #3078), total ROS1 (CST #3266), phopsho-Shp2 (CST #3751), total Shpt (CST #3752), phospho-Stat3 (CST #9145), total Stat3 (CST #4904), phospho-Erk1/2 (CST #9101), total Erk2 (Santa Cruz #SC-1647), phospho-S6 (CST #4858), total S6 (CST #2216), phospho-Src (CST #2105), total Src (CST #2110), α-tubulin (Sigma T6199), or β-actin (Sigma A1978) as indicated. Images of the blots were generated by the LI-COR Odyssey® imaging system, following the manufacturer's protocol for immunoblot detection with use of IR-dye conjugated secondary antibodies.

FIG-ROS [3] = molecular target: T3, FIG-ROS (Homo sapiens, UniProt P08922); assay: Immunoblot of Ba/F3 FIG-ROS lysates; type: cell-based; parameters: expressed in transfected cells; host or cells: Ba/F3 (A14), retroviral pMSCV-IRES-GFP; the other entry of the earlier key: GOPC (Q9HD26, Golgi-associated PDZ and coiled-coil motif-containing protein); conditions: Ba/F3 FIG-ROS cells, increasing amounts, immunoblot FIG. 1C
Description: as §3, §4

HCC78 cells = assay: Cell viability (MTS) assay, HCC78; type: cell-based, human; conditions: for HCC78 cell growth sensitivity to MET inhibitors: FIG. 6C
Description: as §1

Ba/F3 Bcr-Abl cells = Ba/F3 Bcr-Abl cells (Homo sapiens, UniProt P00519); assay: Cell viability (MTS) assay, Ba/F3 Bcr-Abl; type: cell-based; conditions: read-out: IC50 (insensitive/resistant up to stated concentration)
Ba/F3 ALK F1174L cells = Ba/F3 ALK F1174L cells (Homo sapiens, UniProt Q9UM73, F1174L, cells depend on it); assay: Cell viability (MTS) assay, Ba/F3 ALK F1174L; type: cell-based; conditions: 72 hours, read-out: IC50 (the source's name)
Ba/F3 JAK3 A572V cells = Ba/F3 JAK3 A572V cells (Homo sapiens, UniProt P52333, A572V, cells depend on it); assay: Cell viability (MTS) assay, Ba/F3 JAK3 A572V; type: cell-based; conditions: read-out: IC50 (insensitive/resistant up to stated concentration)
[4] = test system: FIG-ROS cholangiocarcinoma tumor cells; assay: Anchorage-independent colony formation in soft agar, FIG-ROS cholangiocarcinoma cells; type: cell-based, murine; conditions: dose dependent
Source text: […]. The values indicate the mean and the error bars indicate the standard error of the mean of 3 independent wells.
(§5) . The inhibition was dose dependent (FIG. 2B). […].

FIG-ROS tumors = assay: In vivo treatment of mice bearing subcutaneous FIG-ROS cholangiocarcinoma tumors; conditions: 25 mg/kg oral gavage once daily, 9 days, immunodeficient mice; foretinib p<0.0001 for Lines 4 and 6
HCC4011 cells = assay: Cell viability assay, HCC4011; type: cell-based, human; conditions: HCC4011 cells (activated EGFR), FIG. 6B
Description: (§6) IC50 was determined from non-linear regression curve fit analysis of the dose response curves.

PC9 cells = assay: Cell viability assay, PC9; type: cell-based, human; conditions: PC9 cells (activated EGFR), FIG. 6B
Description: as §6

[5] = test system: ENU-treated Ba/F3 FIG-ROS cells; assay: Accelerated cell-based (ENU) mutagenesis screen, outgrowth of Ba/F3 FIG-ROS clones
FIG-ROS [6] = molecular target: T3, FIG-ROS; assay: Immunoblot of FIG-ROS murine cholangiocarcinoma cell lysates; type: cell-based; parameters: expressed in transfected cells; host or cells: murine cholangiocarcinoma tumour cell lines (lines 3 and 4) derived from transduced mouse hepatoblasts; the other entry of the earlier key: GOPC (Q9HD26, Golgi-associated PDZ and coiled-coil motif-containing protein); conditions: 100 nM, FIG-ROS murine cholangiocarcinoma cells
Description: […]. Images shown are representative of three independent experiments.
as §4, §5

[7] = test system: FIG-ROS murine cholangiocarcinoma tumor cells; assay: cells; conditions: Mus musculus, read-out: IC50 cell growth
Description: (§7) Hepatoblasts of the genotype AlbCre^+/−; Isl Kras^G12D+/−; p53^R172H/loxp were isolated from ED14.5 mouse embryos and retrovirally transduced with either the FIG-ROS fusion, turbo RFP or a short hairpin RNA against Pten (shPten.1522). At 48 hours following transduction, 1×10^6 cells were resuspended in 25 μl Matrigel and injected sub-capsular into the livers of immune-deficient mice. Upon tumor formation, tumors were explanted and subjected to collagenase digestion. Digests were plated onto gelatin-coated plates. Tumor cells were enriched by either differential trypsinization or cell sorting. […] These four cell lines were further cultured and maintained in DMEM-High glucose medium supplemented with 10% FCS, L-glutamine and penicillin/streptomycin.
(§8) Cell lines were distributed in 96-well plates and incubated with the indicated concentrations of inhibitor for 72 hours. […] Ba/F3 cell lines were plated at 4×10^3 cells/well. HCC78 and mCC cell lines were plated at 1.5×10^3 cells/well. All cell types were seeded in a final volume of 80 microliters. A 20 microliter volume of five-fold concentrated inhibitor media was added. Cell proliferation was measured using a […] viability assay (CellTiter96 Aqueous One® Solution; Promega). A BioTek Synergy 2® plate reader was used to read the absorbance at 490 nm at 30 minutes and 1 hour after addition of MTS. To facilitate comparison between experiments, the raw MTS absorbance of vehicle (0.1% DMSO) treated cells was set to 1 and absorbance from inhibitor treated wells was normalized to the vehicle treated value. […] Data were normalized using Microsoft Excel® and further non-linear regression curve fit analysis of the normalized data for determination of IC50 was performed using Graphpad Prism® software.
(§9) To directly assess inhibition of FIG-ROS phosphorylation, immunoblot analyses of lysates from vehicle or inhibitor-treated cells were performed.

[8] = test system: shPten murine cholangiocarcinoma tumor cells; assay: cells; conditions: Mus musculus, read-out: IC50 cell growth
Description: as §7, §8, §9

Ba/F3 SLC-ROS cells [9] = molecular target: T1, Ba/F3 SLC-ROS cells; assay: Apoptosis induction (Annexin V / 7-AAD), Ba/F3 SLC-ROS; type: cell-based; conditions: 15 nM, 48 hours
Description: (§10) FIG. 5A is a set of three bar graphs depicting the induction of apoptosis in Ba/F3 FIG-ROS, Ba/F3 SLC-ROS and Ba/F3 ALK F1174L cells after 48 hours of treatment with the indicated doses of the indicated compounds. The number of cells that were Annexin V and 7-AAD positive after inhibitor treatment was normalized to number of cells staining positive with these markers with vehicle treatment (basal). A minimum of 2000 cells were counted per condition. Rate of apoptosis is shown as fold over basal. Basal apoptosis in Ba/F3 FIG-ROS, Ba/F3 SLC-ROS and Ba/F3 ALK F1174 cells was 3.6%, 2.8% and 1.2% respectively.

Ba/F3 FIG-ROS cells [10] = molecular target: T2, Ba/F3 FIG-ROS cells; assay: Apoptosis induction (Annexin V / 7-AAD), Ba/F3 FIG-ROS; type: cell-based; conditions: 15 nM, 48 hours
Description: as §10

[11] = Mus musculus, BaF3, Ba/F3 parental cells, read-out: IC50 (insensitive/resistant up to stated concentration)

Sequence of SLC-ROS (P08922 with tags, fused parts or gaps): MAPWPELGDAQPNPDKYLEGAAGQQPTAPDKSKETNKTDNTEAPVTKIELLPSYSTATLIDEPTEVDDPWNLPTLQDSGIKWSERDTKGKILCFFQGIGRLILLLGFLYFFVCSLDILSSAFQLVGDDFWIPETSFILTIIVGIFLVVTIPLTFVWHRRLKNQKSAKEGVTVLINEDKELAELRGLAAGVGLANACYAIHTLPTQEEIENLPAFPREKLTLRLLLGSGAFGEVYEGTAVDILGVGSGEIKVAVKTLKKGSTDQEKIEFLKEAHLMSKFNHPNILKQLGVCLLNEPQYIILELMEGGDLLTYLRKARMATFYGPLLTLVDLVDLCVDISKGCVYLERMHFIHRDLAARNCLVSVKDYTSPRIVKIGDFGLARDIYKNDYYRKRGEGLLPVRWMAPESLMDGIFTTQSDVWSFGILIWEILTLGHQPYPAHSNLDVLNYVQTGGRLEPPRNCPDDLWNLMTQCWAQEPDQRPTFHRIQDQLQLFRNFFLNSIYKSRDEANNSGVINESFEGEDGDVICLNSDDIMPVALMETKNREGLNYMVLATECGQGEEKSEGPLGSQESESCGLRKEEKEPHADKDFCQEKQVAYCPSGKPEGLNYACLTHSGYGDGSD
T2 sequence (P08922 whole entry, change not shown, the tested form may be a part): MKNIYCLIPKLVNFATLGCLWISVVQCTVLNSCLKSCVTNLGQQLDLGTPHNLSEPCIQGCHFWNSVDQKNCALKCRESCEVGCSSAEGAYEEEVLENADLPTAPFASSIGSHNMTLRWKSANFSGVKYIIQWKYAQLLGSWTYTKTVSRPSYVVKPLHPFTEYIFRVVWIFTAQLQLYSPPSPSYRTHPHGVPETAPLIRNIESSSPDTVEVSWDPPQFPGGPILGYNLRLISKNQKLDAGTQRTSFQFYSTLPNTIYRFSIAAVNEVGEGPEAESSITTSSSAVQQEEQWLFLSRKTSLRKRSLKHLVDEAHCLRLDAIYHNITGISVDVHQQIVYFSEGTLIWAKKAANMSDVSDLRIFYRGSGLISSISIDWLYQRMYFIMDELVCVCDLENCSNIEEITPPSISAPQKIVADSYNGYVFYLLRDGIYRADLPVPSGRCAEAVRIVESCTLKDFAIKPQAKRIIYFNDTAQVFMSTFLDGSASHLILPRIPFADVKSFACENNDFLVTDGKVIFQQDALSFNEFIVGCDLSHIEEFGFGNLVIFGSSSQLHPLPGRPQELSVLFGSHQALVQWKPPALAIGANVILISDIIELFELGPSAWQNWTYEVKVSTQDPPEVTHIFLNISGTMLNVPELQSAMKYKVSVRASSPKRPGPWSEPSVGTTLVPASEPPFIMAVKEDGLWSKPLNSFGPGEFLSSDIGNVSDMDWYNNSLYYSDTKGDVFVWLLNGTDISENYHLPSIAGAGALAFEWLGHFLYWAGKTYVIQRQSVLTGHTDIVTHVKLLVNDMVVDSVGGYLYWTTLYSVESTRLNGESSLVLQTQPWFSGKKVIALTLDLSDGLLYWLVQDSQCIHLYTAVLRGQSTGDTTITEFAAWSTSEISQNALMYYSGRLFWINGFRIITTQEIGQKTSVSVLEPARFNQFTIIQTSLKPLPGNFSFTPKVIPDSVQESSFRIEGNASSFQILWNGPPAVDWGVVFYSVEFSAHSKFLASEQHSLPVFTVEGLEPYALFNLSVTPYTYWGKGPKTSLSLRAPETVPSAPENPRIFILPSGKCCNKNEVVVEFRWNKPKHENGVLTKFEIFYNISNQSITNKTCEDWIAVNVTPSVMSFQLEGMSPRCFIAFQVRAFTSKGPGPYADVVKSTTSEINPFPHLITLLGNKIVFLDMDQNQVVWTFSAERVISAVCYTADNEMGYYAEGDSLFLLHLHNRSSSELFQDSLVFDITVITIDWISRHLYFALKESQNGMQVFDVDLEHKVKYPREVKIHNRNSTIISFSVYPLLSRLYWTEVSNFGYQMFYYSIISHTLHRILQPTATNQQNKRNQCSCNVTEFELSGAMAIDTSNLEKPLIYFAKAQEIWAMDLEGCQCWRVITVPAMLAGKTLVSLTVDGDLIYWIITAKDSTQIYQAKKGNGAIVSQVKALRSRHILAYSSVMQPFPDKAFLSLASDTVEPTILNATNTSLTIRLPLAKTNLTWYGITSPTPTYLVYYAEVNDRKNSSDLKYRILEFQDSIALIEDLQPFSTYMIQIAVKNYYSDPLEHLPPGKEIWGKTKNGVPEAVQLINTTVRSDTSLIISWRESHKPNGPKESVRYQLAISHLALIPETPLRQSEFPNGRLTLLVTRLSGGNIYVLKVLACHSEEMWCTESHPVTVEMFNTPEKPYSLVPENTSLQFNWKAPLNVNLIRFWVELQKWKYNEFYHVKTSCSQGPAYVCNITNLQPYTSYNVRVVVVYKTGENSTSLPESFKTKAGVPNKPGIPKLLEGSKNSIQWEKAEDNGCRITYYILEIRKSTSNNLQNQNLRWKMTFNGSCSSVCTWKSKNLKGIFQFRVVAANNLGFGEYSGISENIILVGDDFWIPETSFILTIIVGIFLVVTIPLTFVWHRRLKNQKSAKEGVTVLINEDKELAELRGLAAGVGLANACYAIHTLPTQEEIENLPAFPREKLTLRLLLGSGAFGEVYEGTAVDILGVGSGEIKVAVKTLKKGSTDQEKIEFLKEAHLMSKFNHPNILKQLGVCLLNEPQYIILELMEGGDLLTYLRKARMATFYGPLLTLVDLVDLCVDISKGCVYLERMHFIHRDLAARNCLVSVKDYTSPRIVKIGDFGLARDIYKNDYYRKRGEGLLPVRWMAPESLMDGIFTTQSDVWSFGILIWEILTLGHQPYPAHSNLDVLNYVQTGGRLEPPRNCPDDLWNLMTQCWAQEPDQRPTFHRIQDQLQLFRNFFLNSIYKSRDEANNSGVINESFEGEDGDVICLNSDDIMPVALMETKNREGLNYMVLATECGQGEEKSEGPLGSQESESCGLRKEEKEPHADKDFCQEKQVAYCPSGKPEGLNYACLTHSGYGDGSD
T1 sequence (P08922 whole entry, change not shown, the tested form may be a part): as above
T3 sequence (P08922 with tags, fused parts or gaps): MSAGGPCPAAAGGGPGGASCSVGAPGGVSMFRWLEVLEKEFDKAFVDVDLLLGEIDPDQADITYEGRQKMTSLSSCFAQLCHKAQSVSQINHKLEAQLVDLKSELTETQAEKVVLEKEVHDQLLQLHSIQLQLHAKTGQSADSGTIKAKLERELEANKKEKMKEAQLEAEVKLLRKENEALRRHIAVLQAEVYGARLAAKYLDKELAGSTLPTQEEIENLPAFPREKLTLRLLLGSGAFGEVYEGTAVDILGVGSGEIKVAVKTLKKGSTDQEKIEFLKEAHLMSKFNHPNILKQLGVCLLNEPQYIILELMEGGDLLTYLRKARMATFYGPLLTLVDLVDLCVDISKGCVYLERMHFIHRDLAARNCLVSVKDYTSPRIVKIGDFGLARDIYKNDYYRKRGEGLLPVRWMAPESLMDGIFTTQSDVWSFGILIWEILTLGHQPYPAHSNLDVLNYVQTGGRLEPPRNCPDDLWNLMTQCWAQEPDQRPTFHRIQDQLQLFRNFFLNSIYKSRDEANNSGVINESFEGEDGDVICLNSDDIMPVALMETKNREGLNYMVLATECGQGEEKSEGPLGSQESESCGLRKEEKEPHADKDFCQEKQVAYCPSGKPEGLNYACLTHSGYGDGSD
Sequence of Ba/F3 Bcr-Abl cells (P00519 whole entry, stated change not applied): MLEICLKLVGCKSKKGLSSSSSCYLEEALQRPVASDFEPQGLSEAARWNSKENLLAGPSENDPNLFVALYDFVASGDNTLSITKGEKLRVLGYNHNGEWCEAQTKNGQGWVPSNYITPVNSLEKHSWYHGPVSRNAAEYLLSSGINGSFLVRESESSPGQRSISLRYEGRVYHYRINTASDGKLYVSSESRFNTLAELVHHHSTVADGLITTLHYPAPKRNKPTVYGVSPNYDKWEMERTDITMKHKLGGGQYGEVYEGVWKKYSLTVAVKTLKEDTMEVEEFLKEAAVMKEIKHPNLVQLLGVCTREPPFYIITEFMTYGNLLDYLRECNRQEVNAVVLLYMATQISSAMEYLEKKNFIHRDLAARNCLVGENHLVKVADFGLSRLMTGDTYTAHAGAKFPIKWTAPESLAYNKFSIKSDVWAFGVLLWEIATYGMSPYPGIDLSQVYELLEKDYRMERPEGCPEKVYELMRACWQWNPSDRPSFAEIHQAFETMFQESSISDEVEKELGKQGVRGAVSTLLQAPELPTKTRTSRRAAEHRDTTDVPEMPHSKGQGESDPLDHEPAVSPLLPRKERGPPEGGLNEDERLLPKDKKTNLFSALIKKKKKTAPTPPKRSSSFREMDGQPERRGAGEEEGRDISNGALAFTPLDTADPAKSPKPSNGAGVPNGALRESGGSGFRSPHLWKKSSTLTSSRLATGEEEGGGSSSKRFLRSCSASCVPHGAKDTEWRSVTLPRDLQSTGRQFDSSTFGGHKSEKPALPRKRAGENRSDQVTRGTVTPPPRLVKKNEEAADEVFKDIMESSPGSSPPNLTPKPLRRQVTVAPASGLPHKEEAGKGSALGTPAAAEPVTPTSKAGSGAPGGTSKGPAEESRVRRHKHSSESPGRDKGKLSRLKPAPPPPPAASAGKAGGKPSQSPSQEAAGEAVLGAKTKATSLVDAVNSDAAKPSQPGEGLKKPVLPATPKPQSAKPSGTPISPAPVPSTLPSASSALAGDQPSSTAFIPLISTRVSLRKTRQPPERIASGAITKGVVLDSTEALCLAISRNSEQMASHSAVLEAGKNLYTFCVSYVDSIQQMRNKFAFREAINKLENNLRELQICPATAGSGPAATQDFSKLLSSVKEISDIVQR

COc1cc(N2CCC(N3CCN(C)CC3)CC2)ccc1Nc1ncc(Cl)c(Nc2ccccc2S(=O)(=O)C(C)C)n1 [TAE684]
GI50 (Ba/F3 SLC-ROS cells [1]): 28 nM | GI50 (Ba/F3 FIG-ROS cells [2]): 2 nM and 1.8 nM | IC50 (Ba/F3 parental cells; [11]): > 2000 nM | autophosphorylation of SLC-ROS and ROS1-driven signaling (phospho-Shp2, phospho-ERK1/2) (SLC-ROS): dose dependent decrease | autophosphorylation of FIG-ROS and ROS1-driven signaling (phospho-Shp2, phospho-ERK1/2) (FIG-ROS [3]): dose dependent decrease

Cn1cc(-c2ccc3nnc(Sc4ccc5ncccc5c4)n3n2)cn1 [SGX-523]
HCC78 cell growth sensitivity to MET inhibitors (HCC78 cells): resistant

CNC(=O)c1c(F)cccc1Nc1nc(Nc2cc3c(cc2OC)CCN3C(=O)CN(C)C)nc2[nH]ccc12 [GSK1838705A]
GI50 (Ba/F3 Bcr-Abl cells): > 10000 nM | GI50 (Ba/F3 ALK F1174L cells): 10 nM | GI50 (Ba/F3 SLC-ROS cells [1]): 1000 nM | GI50 (Ba/F3 FIG-ROS cells [2]): 250 nM | IC50 (Ba/F3 parental cells; Ba/F3 parental cells, read-out: IC50 (insensitive/resistant up to stated concentration)): > 10000 nM | GI50 (Ba/F3 JAK3 A572V cells): > 10000 nM

Cn1cc(-c2ccc3nnc(C(F)(F)c4ccc5ncccc5c4)n3n2)cn1 [JNJ38877605]
HCC78 cell growth sensitivity to MET inhibitors (HCC78 cells): resistant

C[C@@H](Oc1cc(-c2cnn(C3CCNCC3)c2)cnc1N)c1c(Cl)ccc(F)c1Cl [crizotinib]
IC50 (HCC78 cells; Homo sapiens, 72 hour exposure, read-out: IC50 HCC78 cell growth): 2200 nM | anchorage-independent colonies in soft agar [4]: inhibited | FIG-ROS tumor volume (FIG-ROS tumors): moderate but statistically insignificant effect | sensitivity of cell growth (HCC4011 cells): relatively insensitive | sensitivity of cell growth (PC9 cells): relatively insensitive | IC50 (Ba/F3 parental cells; Mus musculus, BaF3, read-out: IC50 (insensitive/resistant up to stated concentration)): > 2000 nM | frequency of outgrowth of clones ([5]; 500 nM crizotinib): 40% | outgrowth of clones ([5]; 2000 and 2500 nM crizotinib): no outgrowth of clones | auto-phosphorylation of FIG-ROS and phosphorylation of Shpt and ERK1/2 (FIG-ROS [6]): more moderate effect | autophosphorylation of SLC-ROS and ROS1-driven signaling (phospho-Shp2, phospho-ERK1/2) (SLC-ROS): dose dependent decrease | autophosphorylation of FIG-ROS and ROS1-driven signaling (phospho-Shp2, phospho-ERK1/2) (FIG-ROS [3]): dose dependent decrease | IC50 [7]: 690 nM | IC50 [8]: > 2000 nM

Cn1c2ccccc2c2c3c(c4c5ccccc5n(CCC#N)c4c21)CNC3=O [Gö6976, 12-(2-cyanoethyl)-6,7,12,13-tetrahydro-13-methyl-5-oxo-5H-indolo(2,3-a)pyrrolo(3,4-c)-carbazole]
apoptosis induction (Ba/F3 SLC-ROS cells [9]): induced apoptosis | GI50 (Ba/F3 FIG-ROS cells [2]): 1.4 nM | IC50 (Ba/F3 parental cells; [11]): > 2000 nM | autophosphorylation of SLC-ROS and ROS1-driven signaling (phospho-Shp2, phospho-ERK1/2) (SLC-ROS): dose dependent decrease | apoptosis induction (Ba/F3 FIG-ROS cells [10]): induced apoptosis | autophosphorylation of FIG-ROS and ROS1-driven signaling (phospho-Shp2, phospho-ERK1/2) (FIG-ROS [3]): dose dependent decrease

C#Cc1cccc(Nc2ncnc3cc(OCCOC)c(OCCOC)cc23)c1 [erlotinib]
sensitivity of cell growth (HCC4011 cells): sensitive | sensitivity of cell growth (PC9 cells): sensitive
